Values of other authors as cited in patent US20240041944A1, “OPTIMIZED INDIVIDUALIZED PREBIOTIC COMPOSITIONS” (ISOThrive LLC, priority 2016, published 2024).
Entries after “also recorded” stand apart in the source; their conditions may differ. Ends that are not written are not given here.

How the values were obtained:
[1] = can be autoclaved at 115° C.
Salmonella spp. = conditions: co-administered with EDTA
head/neck tumors = conditions: head and neck, mice
[2] = system: Bacillus, Clostridium, Staphylococcus, Streptococcus, and Listeria spp.
Caenorhabditis elegans = conditions: incubation with rifamycin

Nisin: lantibiotic bacteriocin produced by Lactococcus lactis, 34-residue peptide (SEQ ID NO:2) (ITSISLCTPGCKTGALMGCNMKTATCNCSIHVSK; cysteine pairing not given here; also: lanthionine modifications; listed as Lactococcus lactis)
thermal stability [1]: thermally stable
Cancer Cell Type affected (cancer cell lines): MCF7 (breast cancer),; also recorded: HepG2 (liver cancer)
activity against gram negative organisms (Salmonella spp.): effective
effect on tumorigenesis / tumors (head/neck tumors): reduce tumorigenesis
antimicrobial activity [2]: active

CO[C@H]1/C=C/O[C@@]2(C)Oc3c(C)c(O)c4c(O)c(cc(O)c4c3C2=O)NC(=O)/C(C)=C\C=C\[C@H](C)[C@H](O)[C@@H](C)[C@@H](O)[C@@H](C)[C@H](OC(C)=O)[C@@H]1C [rifamycin]
cytotoxicity (ascites tumors): cytotoxic
increase of lifespan (Caenorhabditis elegans): up to 60%

Bovicin HC5
Cancer Cell Type affected (cancer cell lines): MCF7 (breast cancer),; also recorded: HepG2 (liver cancer)

B1: Microcin E492: class IIa bacteriocin produced by K. pneumoniae (protein, UniProt Q9Z4N4 16-99, looked up)
Microcin E492: GETDPNTQLLNDLGNNMAWGAALGAPGGLGSAALGAAGGALQTVGQGLIDHGPVNVPIPVLIGPSWNGSGSGYNSATSSSGSGS
Cancer Cell Type affected (cancer cell lines): HeLa (cervical cancer),; also recorded: Jurkat (leukemia); also recorded: RJ2.25

B2: Pyocin S2: class III bacteriocin produced by P. aeruginosa 42A (protein, UniProt Q06584 2-689, looked up)
Pyocin-S2: AVNDYEPGSMVITHVQGGGRDIIQYIPARSSYGTPPFVPPGPSPYVGTGMQEYRKLRSTLDKSHSELKKNLKNETLKEVDELKSEAGLPGKAVSANDIRDEKSIVDALMDAKAKSLKAIEDRPANLYTASDFPQKSESMYQSQLLASRKFYGEFLDRHMSELAKAYSADIYKAQIAILKQTSQELENKARSLEAEAQRAAAEVEADYKARKANVEKKVQSELDQAGNALPQLTNPTPEQWLERATQLVTQAIANKKKLQTANNALIAKAPNALEKQKATYNADLLVDEIASLQARLDKLNAETARRKEIARQAAIRAANTYAMPANGSVVATAAGRGLIQVAQGAASLAQAISDAIAVLGRVLASAPSVMAVGFASLTYSSRTAEQWQDQTPDSVRYALGMDAAKLGLPPSVNLNAVAKASGTVDLPMRLTNEARGNTTTLSVVSTDGVSVPKAVPVRMAAYNATTGLYEVTVPSTTAEAPPLILTWTPASPPGNQNPSSTTPVVPKPVPVYEGATLTPVKATPETYPGVITLPEDLIIGFPADSGIKPIYVMFRDPRDVPGAATGKGQPVSGNWLGAASQGEGAPIPSQIADKLRGKTFKNWRDFREQFWIAVANDPELSKQFNPGSLAVMRDGGAPYVRESEQAGGRIKIEIHHKVRIADGGGVYNMGNLVAVTPKRHIEIHKGGK
Cancer Cell Type affected (cancer cell lines): HepG2 (liver cancer) and Im9

B3: Colicin E3: class III bacteriocin produced by E. coli (protein, UniProt P00646 1-551, looked up)
Colicin E3: MSGGDGRGHNTGAHSTSGNINGGPTGLGVGGGASDGSGWSSENNPWGGGSGSGIHWGGGSGHGNGGGNGNSGGGSGTGGNLSAVAAPVAFGFPALSTPGAGGLAVSISAGALSAAIADIMAALKGPFKFGLWGVALYGVLPSQIAKDDPNMMSKIVTSLPADDITESPVSSLPLDKATVNVNVRVVDDVKDERQNISVVSGVPMSVPVVDAKPTERPGVFTASIPGAPVLNISVNNSTPAVQTLSPGVTNNTDKDVRPAGFTQGGNTRDAVIRFPKDSGHNAVYVSVSDVLSPDQVKQRQDEENRRQQEWDATHPVEAAERNYERARAELNQANEDVARNQERQAKAVQVYNSRKSELDAANKTLADAIAEIKQFNRFAHDPMAGGHRMWQMAGLKAQRAQTDVNNKQAAFDAAAKEKSDADAALSSAMESRKKKEDKKRSAENNLNDEKNKPRKGFKDYGHDYHPAPKTENIKGLGDLKPGIPKTPKQNGGGKRKRWTGDKGRKIYEWDSQHGELEGYRASDGQHLGSFDPKTGNQLKGPDPKRNIKKYL
Cancer Cell Type affected (cancer cell lines): P388 (lymphoma) and HeLa

B4: Colicin E1: class III bacteriocin produced by E. coli (protein, UniProt P02978 1-522, looked up)
Colicin-E1: METAVAYYKDGVPYDDKGQVIITLLNGTPDGSGSGGGGGKGGSKSESSAAIHATAKWSTAQLKKTQAEQAARAKAAAEAQAKAKANRDALTQRLKDIVNEALRHNASRTPSATELAHANNAAMQAEDERLRLAKAEEKARKEAEAAEKAFQEAEQRRKEIEREKAETERQLKLAEAEEKRLAALSEEAKAVEIAQKKLSAAQSEVVKMDGEIKTLNSRLSSSIHARDAEMKTLAGKRNELAQASAKYKELDELVKKLSPRANDPLQNRPFFEATRRRVGAGKIREEKQKQVTASETRINRINADITQIQKAISQVSNNRNAGIARVHEAEENLKKAQNNLLNSQIKDAVDATVSFYQTLTEKYGEKYSKMAQELADKSKGKKIGNVNEALAAFEKYKDVLNKKFSKADRDAIFNALASVKYDDWAKHLDQFAKYLKITGHVSFGYDVVSDILKIKDTGDWKPLFLTLEKKAADAGVSYVVALLFSLLAGTTLGIWGIAIVTGILCSYIDKNKLNTINEVLGI
Cancer Cell Type affected (cancer cell lines): MCF7 (breast cancer),; also recorded: HS913T (fibrosarcoma)
